Laboratory results: US20260193531A1, “LIQUID WEIGHTING AGENTS FOR OIL-BASED FLUIDS” (Albemarle Corporation, priority 2022, published 2026)
Where two headings read alike, the source gives them in different places.

Legend:
[1] = Density of the esters and ester mixtures; format: physicochemical
[2] = Closed-bottle anaerobic biodegradation test, EPA Method 1647 (275 days); settings: Duration 275 days
Description: Anaerobic biodegradation testing. […] For each substance, four samples were run. Each test was compared to separate standard samples containing ethyl oleate, squalane, 1-hexadecene, C16-18 internal olefin, or no additive. To pass the test, the sample must have more net biodegradation than the C16-18 internal olefin. The testing procedure was as follows: • 1. Each test mixture was prepared by combining with 2000 mg carbon (sample) per kg of natural sediment; 30 grams of the mixture were used for each sample run. The carbon content of the sample was measured before mixing the sample with the sediment. […] After a bottle was capped, a nitrogen sparge was employed to remove air in the headspace of the bottle before incubation was started. • 3. During the incubation period, the sample is kept at a constant temperature of 29±1° C. • 4. […] Each sample was brought to ambient temperature to make each measurement. Gas production was measured with a pressure gauge, and barometric pressure was also measured at the time of measurement to make volume corrections.

Leptocheirus plumulosus = format: in vivo; settings: for Quantity: estimate
Description: Sediment toxicity testing. Sediment toxicity testing was according to U.S. Environmental Protection Agency Method 1644, the “Method for Conducting a Sediment Toxicity Test with Leptocheirus plumulosus and Non-Aqueous Drilling Fluids or Synthetic-Based Drilling Muds”. The testing procedure was as follows: • 1. Leptocheirus plumulosus amphipods were cultured and maintained in natural sediment at 23±2° C. before being exposed to a test sample. • 2. A sample contained sediment, synthetic seawater, and the substance being tested. Five samples of each substance were prepared and tested, the sample having concentrations of 100, 200, 400, 800, and 1600 mg/kg of the substance to be tested. • 3. For each sample, a 1-liter jar was prepared with approximately 150 mL of formulated sediment with 600 mL of synthetic sea water, and the substance to be tested. • 4. In each test, 20 Leptocheirus plumulosus amphipods were exposed to the sample at 20±1° C. for 10 days in the 1-L closed jar; the Leptocheirus plumulosus amphipods were not fed after the test was initiated. • 5. At the end of 10 days, the Leptocheirus plumulosus amphipods remaining alive were counted and an LC50 value was predicted based on those results.

[3] = Miscibility with a base oil (solid formation or phase separation after one week); format: physicochemical; settings: 50:50 weight mixture with a base oil; for miscibility: room temperature
Description: Some of the liquid weighting agents of this invention are usable as oil-miscible weighting agents (OMWA). As used throughout this document, the term “miscible” means that emulsions and/or separate phases are not observed in a 50:50 weight mixture of one or more of the liquid weighting agents of this invention (total of 50 wt %) and an oil (50 wt %) after the mixture has been kept at 0° C. for one week. Similarly, as used throughout this document, the term “partially miscible” means that emulsions and/or separate phases are not observed in a 50:50 weight mixture of one or more of the liquid weighting agents of this invention (total of 50 wt %) and an oil (50 wt %) after the mixture has been kept at room temperature for one week.
The tribromoneopentyl esters were each combined with a base oil in a 50:50 weight mixture.
Some of the tribromoneopentyl monoesters were tested in pairs in a base oil in a 25:25:50 weight ratio, with 25 wt % of each tribromoneopentyl monoester and 50 wt % of the base oil.
The dibromoallyl esters were each combined with a base oil in a 50:50 weight mixture.
Several mixtures of a monoester containing a terminal alkene moiety were tested in a base oil in a 50:50 weight mixture.
Several mixtures of a tribromoneopentyl monoester and a monoester containing a terminal alkene moiety were tested in a base oil in a 25:25:50 weight ratio, with 25 wt % of the tribromoneopentyl monoester, 25 wt % of 2,3-dibromoprop-2-en-1-yl propanoate, and 50 wt % of the base oil.

[4] = sediment toxicity test, Pass/Fail

Compound	Density [1] [g/mL]	further results
O=C(CBr)OCC(CBr)(CBr)COC(=O)CBr [2,2-bis(bromomethyl)1,3-propanediol-1,3-bis-(bromoacetate)]	2.13	
CC(C)C(=O)OCC(CBr)(CBr)COC(=O)C(C)C [2,2-bis(bromomethyl)1,3-propanediol-1,3-di(2-methylpropanoate)]	1.46	
CCCCCC(=O)OCC(CBr)(CBr)COC(=O)CCCCC [2,2-bis(bromomethyl)1,3-propanediol-1,3-dihexanoate]	1.28	Amount biodegradation [2]: 7.36%; Result (Leptocheirus plumulosus; in vivo): Pass
CC(=O)OCC(Br)=CBr [2,3-dibromoallyl acetate]	1.83	solid formation or phase separation ([3]; 0° C. for one week): no solid formation or phase separation was observed
CCC(Br)C(=O)OC/C(Br)=C(\Br)COC(=O)C(Br)CC (centres unmarked) [(2E)-2,3-dibromobut-2-ene-1,4-diyl bis(2′-bromobutyrate)]	1.94	
CCC(=O)OC/C(Br)=C(\Br)COC(=O)CC [(2E)-2,3-dibromobut-2-ene-1,4-diyl bis(propanoate)]	1.59	Amount biodegradation [2]: 54.64%; Result (Leptocheirus plumulosus; in vivo): Pass
O=C(CBr)OC/C=C\COC(=O)CBr [(2Z)-but-2-ene-1,4-diyl bis(bromoacetate)]	1.74	
O=C(CBr)OCC(COC(=O)CBr)OC(=O)CBr [propane-1,2,3-triyl tris (bromoacetate)]	1.95	
CC(C)C(=O)OCC(CBr)(CBr)CBr [tribromoneopentyl 2-methylpropanoate, 3-bromo-2,2-bis(bromomethyl)propyl 2-methylpropanoate]	1.79	Result (Leptocheirus plumulosus; [4]): Fail; Quantity (Leptocheirus plumulosus; sediment toxicity test): ~243 mg/kg (estimate)
CCCC(=O)OCC(CBr)(CBr)CBr [tribromoneopentyl butyrate, 3-bromo-2,2-bis(bromomethyl)propyl butyrate]	1.79	solid formation or phase separation ([3]; 0° C. for one week): no solid formation or phase separation was observed
CCCCCC(=O)OCC(CBr)(CBr)CBr [tribromoneopentyl hexanoate, 3-bromo-2,2-bis(bromomethyl)propyl hexanoate]	1.57	
CC(C)CC(=O)OCC(CBr)(CBr)CBr [tribromoneopentyl isovalerate, 3-bromo-2,2-bis(bromomethyl)propyl isovalerate]	1.73	
CCC(=O)OCC(CBr)(CBr)CBr [tribromoneopentyl propionate, 3-bromo-2,2-bis(bromomethyl)propyl propionate]	1.87	solid formation or phase separation ([3]; 0° C. for one week): phase separation was observed; solid formation or phase separation ([3]; kept at −18° C. for one week): phase separation was observed
CCCCC(=O)OCC(CBr)(CBr)CBr [tribromoneopentyl valerate, 3-bromo-2,2-bis(bromomethyl)propyl pentanoate]	1.72	Result (Leptocheirus plumulosus; [4]): Pass; Quantity (Leptocheirus plumulosus; sediment toxicity test): ~363 mg/kg (estimate)

Second part, led by results:

Density [1] [g/mL]	Compound	further results
1.62	CCC(=O)OCC(CBr)(CBr)COC(=O)CC [2,2-bis(bromomethyl)1,3-propanediol-1,3-dipropionate]	
1.70	CC(C)C(=O)OCC(Br)=CBr [2,3-dibromoallyl 2-methylpropanoate]	solid formation or phase separation ([3]; kept at −18° C. for one week): no solid formation or phase separation was observed; miscibility [3]: miscible
1.79	CCC(=O)OCC(Br)=CBr [2,3-dibromoallyl propionate]	solid formation or phase separation ([3]; kept at −18° C. for one week): no solid formation or phase separation was observed; miscibility [3]: miscible
1.49	CC(C)C(=O)OC/C(Br)=C(\Br)COC(=O)C(C)C [(2E)-2,3-dibromobut-2-ene-1,4-diyl bis(2-methylpropanoate)]	
1.62	CC(C)C(=O)OCc1cc(Br)cc(Br)c1 [(3,5-dibromophenyl)methyl 2-methylpropanoate]	
1.76	CC(=O)OCc1cc(Br)cc(Br)c1 [(3,5-dibromophenyl)methyl acetate]	
2.06	O=C(CBr)OCc1cc(Br)cc(Br)c1 [(3,5-dibromophenyl)methyl bromoacetate]	
1.62	CCCC(=O)OCc1cc(Br)cc(Br)c1 [(3,5-dibromophenyl)methyl butyrate]	Amount biodegradation [2]: 25.1%
1.56	CCCCC(=O)OCc1cc(Br)cc(Br)c1 [(3,5-dibromophenyl)methyl pentanoate]	
1.68	CCC(=O)OCc1cc(Br)cc(Br)c1 [(3,5-dibromophenyl)methyl propionate]	
